Data on 35 compounds can be found in a melting point compilation (Tetko et al.; mined from patent text by program, amines drawn as free bases though some values may be those of a salt).

Some results are limits rather than exact numbers.

`CCOC(=O)C1=C(C)NC(N)=C(C(=O)OCC)C1Cc1cccs1` (stereo not given) had a melting point of 170 °C.

Take `Cc1cccc(C(=O)Nc2c[nH]nc2C(=O)NCC(F)(F)F)n1`: the melting point lay in the range of 257 to 258 °C.

`O=C(O)c1ccccc1-c1ccc(CO)cc1` came in with a melting point of 140 to 142 °C.

In turn, `COC(=O)c1occc1NC(N)=O` had a melting point of 208 °C.

As for `CCCS(=O)(=O)Nc1ccc(Sc2c(O)c3c(=O)n(-c4ccccc4)c4ccccc4c3oc2=O)cc1`, the melting point was 249 to 251 °C.

Consider `CCOc1ccc(C2=NN(CCCCOc3ccc(C4=NNC(=O)CC4C)cc3)C(=O)C3CC=CCC23)cc1OCC` (stereo not given), for which the melting point is 73 to 78 °C.

Regarding `O=C1c2ccccc2C(=O)c2c(NC(=O)[C@@H]3C[C@H]3c3ccccc3)ccc(NC(=O)[C@@H]3C[C@H]3c3ccccc3)c21` (relative stereo), the melting point was 272 to 274 °C.

As for `CN(C(=O)CN(C(=O)CN1C(=O)c2ccccc2C1=O)c1ccccc1Cl)c1ccccc1`, the melting point is 168 °C.

For the compound `COCCOc1ccc(O)c(C(=O)O)c1`, the melting point fell in the range of 115 to 116 °C.

Regarding `O=C(O)CCc1ccc(O)c([N+](=O)[O-])c1`, the melting point lay in the range of 80 to 82 °C.

`COc1ccc(Cc2n[nH]c3c2c(=O)n(-c2ccccc2)c2ncccc32)cc1OC` came in with a melting point of 230 to 232 °C.

`Clc1cnc2[nH]c3ccc(CCc4ccccc4)cc3c2c1` registered a melting point of 216 to 220 °C.

`O=C(O)Cn1c(=O)c(=O)[nH]c2ccccc21`: the melting point was > 300 °C.

In turn, `CC(C)(C)[Si](C)(C)CCCSCCNC(=O)n1cc(F)c(=O)[nH]c1=O` registered a melting point of 123 to 124 °C.

`CN1CCC(Cn2sc3cc(Cl)ccc3c2=O)CC1`: the melting point came out at 86 °C.

For the compound `CCOC(=O)c1cc(OC)c(OCCOC)cc1[N+](=O)[O-]`, the melting point lay in the range of 68 to 69 °C.

`CCCCCOC1CCN(S(=O)(=O)C=Cc2ccccc2)C1=O` (stereo not given) gave a melting point of 66 to 68 °C.

The compound `O=C1c2cscc2Nc2ccccc2N1C1C=CCCC1` (stereo not given) yielded a melting point of 147 to 149 °C.

Take `O=c1[nH]c2cc([N+](=O)[O-])ccc2c(=O)n1S(=O)(=O)c1ccc(Cl)cc1`: the melting point lay within 258 to 260 °C.

Turning to `Cn1c(C(F)(F)F)cc(=O)n(-c2cc(OC(=O)CC#N)c(Cl)cc2F)c1=O`, the melting point lay within 157 to 160 °C.

For the compound `CCCc1c(O)cccc1Oc1cc(F)ccc1C(=O)OC`, the melting point was in the range of 92 to 94 °C.

`OC(CON=C1CCCc2sccc21)CN1CCCC1` (stereo not given) had a melting point of 136 °C.

Compound `CC(=O)OCc1nn(-c2ccc(F)cc2)c2c1CCCC2Cc1cccc2ccccc12` (stereo not given) registered a melting point of 142 to 144 °C.

`CCCNC(=O)Cn1c(-c2ccc(Cl)cc2)nc2cccnc21` came in with a melting point of 220 to 221 °C.

The compound `CC1(C)CCC(C)(C)c2cc(-c3cc(-c4ccc(C(=O)O)cc4)ccc3CCCO)ccc21` registered a melting point of 203 °C.

`CC(=O)NC[C@H]1CN(c2cc(F)c(N3CCC(n4nnc(N5CCN(C#N)CC5)n4)CC3)c(F)c2)C(=O)O1` had a melting point of 198 to 200 °C.

In turn, `CN1CCN(c2cccc3ccc(O)cc23)CC1` showed a melting point of 112 °C.

Regarding `CC(=O)NCC1CN(c2ccc(N3CCN(c4nc5ccccc5o4)CC3)c(F)c2)C(=O)O1` (stereo not given), the melting point was in the range of 223 to 224 °C.

`Cn1cc(C(=O)c2ccc(F)cc2)cc1C(=O)c1ccncc1`: the melting point lay within 155 to 157 °C.

Consider `O=C(OCn1c(=O)[nH]cc(F)c1=O)c1cccnc1`, for which the melting point lay within 179 to 180 °C.

On to `CC(C)CC(NC(c1ccc(-c2ccc(S(C)(=O)=O)cc2)cc1)C(F)(F)F)C(=O)NCC#N` (stereo not given), for which the melting point was found to be 140 °C.

For `CC(=O)C[C@H]1CC[C@H](c2ccc(Cl)cc2)CC1`, the melting point is 58 to 60 °C.

Compound `Nc1cc(O)ccc1CCCl` gave a melting point of 96 to 100 °C.

Compound `OCC(O)CN1CCN(C(c2ccccc2)c2ccccc2)CC1` (stereo not given) had a melting point of 125 to 126 °C.

Take `CSc1nccc(-n2nnc3ccccc32)n1`: the melting point is 180 to 182 °C.

Usually melting point stands for the temperature of the solid-liquid transition.
